Key:
Type in all cases: biochemical
[1] = target: PI3K (p110δ/p85α) (Homo sapiens, UniProt O00329); test: PI3Kδ assay (ADP-Glo Kinase Assay); settings: recombinant enzyme; IC50 (nM) or max inhibition (%) at 0.5 μM
Description: Compounds disclosed herein were tested for inhibition of PI3Kδ kinase activity using commercial ADP-Glo™ Kinase Assay (Promega Corporation) and following the manufacture's instruction. Briefly, recombinant PI3K (p110δ/p85α) enzyme, lipid kinase substrate and a serial dilution of compounds disclosed herein were incubated for 0.5 hr at room temperature. ATP was added to initiate the kinase reaction. After incubation for 1 hr at room temperature, ADP-Glo™ reagent was added to terminate the kinase reaction and deplete the remaining ATP. After incubation for 1 hr at room temperature, kinase detection reagent was added to simultaneously convert ADP to ATP and allow the newly synthesized ATP to be measured using a luciferase/luciferin reaction. After incubation for 0.5 hr at room temperature, the luminescence generated was measured on a PHERAstar FS plate reader (BMG LABTECH). The residual enzyme activity in presence of increasing concentrations of compounds was calculated based on the luminescence. The IC50 for each compound was derived from fitting the data to the four-parameter logistic equation by Graphpad Prism software.

[2] = target: PI3K (p110α/p85α) (Homo sapiens, UniProt P42336); test: PI3Kα assay (ADP-Glo Kinase Assay); settings: recombinant enzyme; IC50 (nM) or max inhibition (%) at 0.5 μM
Sequence of PI3K (p110α/p85α) (P42336 whole entry): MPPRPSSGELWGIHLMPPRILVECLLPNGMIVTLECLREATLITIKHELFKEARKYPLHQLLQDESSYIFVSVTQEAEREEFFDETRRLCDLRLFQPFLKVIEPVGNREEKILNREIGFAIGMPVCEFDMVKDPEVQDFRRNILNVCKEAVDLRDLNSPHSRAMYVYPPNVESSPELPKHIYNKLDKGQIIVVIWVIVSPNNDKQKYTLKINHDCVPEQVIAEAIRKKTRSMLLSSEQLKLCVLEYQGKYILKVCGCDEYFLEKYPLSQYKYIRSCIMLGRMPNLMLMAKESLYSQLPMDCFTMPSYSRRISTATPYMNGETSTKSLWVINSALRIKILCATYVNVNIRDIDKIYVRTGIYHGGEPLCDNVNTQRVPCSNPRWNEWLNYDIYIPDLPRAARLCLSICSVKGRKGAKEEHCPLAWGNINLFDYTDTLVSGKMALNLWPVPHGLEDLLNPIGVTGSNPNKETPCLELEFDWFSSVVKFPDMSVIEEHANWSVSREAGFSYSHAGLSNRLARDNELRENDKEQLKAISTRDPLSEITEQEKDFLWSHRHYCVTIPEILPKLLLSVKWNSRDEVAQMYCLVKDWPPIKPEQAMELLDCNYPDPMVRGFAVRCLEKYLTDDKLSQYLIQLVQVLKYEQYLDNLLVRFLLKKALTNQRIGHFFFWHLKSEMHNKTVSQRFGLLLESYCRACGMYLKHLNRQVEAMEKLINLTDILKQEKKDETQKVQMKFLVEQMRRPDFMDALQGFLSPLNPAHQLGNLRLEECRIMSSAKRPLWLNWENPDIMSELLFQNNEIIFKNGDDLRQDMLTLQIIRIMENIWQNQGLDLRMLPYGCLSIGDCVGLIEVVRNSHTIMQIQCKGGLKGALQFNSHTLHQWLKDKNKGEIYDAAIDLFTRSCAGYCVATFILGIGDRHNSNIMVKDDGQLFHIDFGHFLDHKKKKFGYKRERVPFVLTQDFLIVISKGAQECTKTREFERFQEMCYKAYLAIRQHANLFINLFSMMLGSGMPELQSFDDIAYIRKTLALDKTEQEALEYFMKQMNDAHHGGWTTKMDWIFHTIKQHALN
Sequence of PI3K (p110α/p85α) (P27986 whole entry partner): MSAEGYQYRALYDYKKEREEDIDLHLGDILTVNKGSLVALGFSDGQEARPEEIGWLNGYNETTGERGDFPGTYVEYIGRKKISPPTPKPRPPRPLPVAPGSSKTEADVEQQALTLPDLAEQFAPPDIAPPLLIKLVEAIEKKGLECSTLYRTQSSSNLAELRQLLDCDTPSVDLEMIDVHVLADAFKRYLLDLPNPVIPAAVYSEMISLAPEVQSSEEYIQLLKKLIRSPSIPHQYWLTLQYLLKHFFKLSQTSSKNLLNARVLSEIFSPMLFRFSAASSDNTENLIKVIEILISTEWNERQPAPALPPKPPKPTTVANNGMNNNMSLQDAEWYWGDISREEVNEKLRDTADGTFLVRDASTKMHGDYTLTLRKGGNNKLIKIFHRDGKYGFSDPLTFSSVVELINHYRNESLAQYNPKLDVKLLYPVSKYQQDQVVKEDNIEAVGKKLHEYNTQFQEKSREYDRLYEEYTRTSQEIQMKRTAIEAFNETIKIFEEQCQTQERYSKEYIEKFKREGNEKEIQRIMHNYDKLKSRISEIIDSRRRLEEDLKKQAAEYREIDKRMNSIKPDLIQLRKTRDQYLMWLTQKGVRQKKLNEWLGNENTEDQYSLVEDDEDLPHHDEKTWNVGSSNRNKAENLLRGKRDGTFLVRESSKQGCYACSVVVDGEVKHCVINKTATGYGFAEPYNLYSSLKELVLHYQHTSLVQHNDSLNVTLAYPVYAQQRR

[3] = target: PI3K (p110β/p85α) (Homo sapiens, UniProt P42338); test: PI3Kβ assay (ADP-Glo Kinase Assay); settings: read-out: Enzyme activity IC50 PI3Kβ
Sequence of PI3K (p110β/p85α) (P42338 whole entry): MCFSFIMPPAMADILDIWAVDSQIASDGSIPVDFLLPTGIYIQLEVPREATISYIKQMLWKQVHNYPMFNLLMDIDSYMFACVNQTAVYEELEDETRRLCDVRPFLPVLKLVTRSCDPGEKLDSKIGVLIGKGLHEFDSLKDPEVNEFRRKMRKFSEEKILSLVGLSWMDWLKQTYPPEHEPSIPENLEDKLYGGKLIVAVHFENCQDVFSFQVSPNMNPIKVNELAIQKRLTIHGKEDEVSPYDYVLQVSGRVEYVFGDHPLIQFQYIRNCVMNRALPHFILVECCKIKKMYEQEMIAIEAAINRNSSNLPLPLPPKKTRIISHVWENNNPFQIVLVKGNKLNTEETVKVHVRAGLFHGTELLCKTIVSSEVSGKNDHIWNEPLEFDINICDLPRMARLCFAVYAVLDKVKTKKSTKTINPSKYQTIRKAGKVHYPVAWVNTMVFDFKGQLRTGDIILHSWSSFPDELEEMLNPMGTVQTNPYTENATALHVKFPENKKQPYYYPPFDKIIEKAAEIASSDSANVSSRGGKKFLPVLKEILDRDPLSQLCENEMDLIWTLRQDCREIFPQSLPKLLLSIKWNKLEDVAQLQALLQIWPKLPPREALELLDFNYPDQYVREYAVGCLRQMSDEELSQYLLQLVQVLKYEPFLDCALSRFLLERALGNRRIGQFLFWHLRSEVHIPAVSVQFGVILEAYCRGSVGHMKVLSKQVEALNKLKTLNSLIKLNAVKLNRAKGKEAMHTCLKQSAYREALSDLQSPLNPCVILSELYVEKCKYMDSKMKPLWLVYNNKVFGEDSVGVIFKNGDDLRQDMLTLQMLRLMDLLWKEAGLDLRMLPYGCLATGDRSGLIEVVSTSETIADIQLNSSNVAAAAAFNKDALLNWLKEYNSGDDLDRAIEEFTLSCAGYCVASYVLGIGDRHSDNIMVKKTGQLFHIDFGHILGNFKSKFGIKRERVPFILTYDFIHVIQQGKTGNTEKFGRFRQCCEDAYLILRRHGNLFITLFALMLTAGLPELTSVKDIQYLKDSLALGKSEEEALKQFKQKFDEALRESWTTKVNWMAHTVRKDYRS
Sequence of PI3K (p110β/p85α) (P27986 whole entry partner): as the sequence (P27986 whole entry partner) above

[4] = target: PI3K (p110γ) (Homo sapiens, UniProt P48736); test: PI3Kγ assay (ADP-Glo Kinase Assay); settings: recombinant enzyme; IC50 (nM) or max inhibition (%) at 0.5 μM
Sequence of PI3K (p110γ) (P48736 whole entry): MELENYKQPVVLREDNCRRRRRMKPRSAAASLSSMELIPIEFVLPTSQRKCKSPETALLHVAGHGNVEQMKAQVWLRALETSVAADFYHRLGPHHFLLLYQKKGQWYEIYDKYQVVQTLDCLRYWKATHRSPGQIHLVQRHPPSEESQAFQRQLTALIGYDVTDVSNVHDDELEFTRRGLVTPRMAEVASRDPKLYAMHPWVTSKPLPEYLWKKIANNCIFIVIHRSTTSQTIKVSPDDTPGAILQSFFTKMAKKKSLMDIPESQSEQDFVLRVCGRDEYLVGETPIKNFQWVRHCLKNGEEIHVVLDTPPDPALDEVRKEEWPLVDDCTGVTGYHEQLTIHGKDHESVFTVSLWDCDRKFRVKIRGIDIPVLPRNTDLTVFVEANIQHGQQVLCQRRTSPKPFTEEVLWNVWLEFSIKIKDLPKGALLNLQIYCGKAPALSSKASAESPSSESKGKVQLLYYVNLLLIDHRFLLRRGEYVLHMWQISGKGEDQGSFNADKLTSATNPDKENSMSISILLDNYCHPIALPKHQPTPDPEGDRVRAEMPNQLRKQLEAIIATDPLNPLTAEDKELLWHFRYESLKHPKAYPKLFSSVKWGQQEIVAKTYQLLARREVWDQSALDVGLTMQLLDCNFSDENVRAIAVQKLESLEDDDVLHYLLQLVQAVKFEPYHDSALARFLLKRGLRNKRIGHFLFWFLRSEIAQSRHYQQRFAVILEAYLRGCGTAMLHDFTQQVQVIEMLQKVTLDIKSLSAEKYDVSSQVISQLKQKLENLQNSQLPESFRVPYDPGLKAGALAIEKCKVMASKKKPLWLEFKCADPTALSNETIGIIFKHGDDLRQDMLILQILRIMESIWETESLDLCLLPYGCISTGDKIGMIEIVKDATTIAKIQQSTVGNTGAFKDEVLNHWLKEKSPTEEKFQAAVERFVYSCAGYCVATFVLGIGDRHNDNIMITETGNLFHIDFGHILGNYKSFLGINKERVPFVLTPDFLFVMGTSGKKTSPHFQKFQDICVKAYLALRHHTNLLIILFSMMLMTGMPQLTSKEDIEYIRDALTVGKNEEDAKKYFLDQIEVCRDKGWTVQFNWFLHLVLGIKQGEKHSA

Sequence of PI3K (p110δ/p85α) (O00329 whole entry): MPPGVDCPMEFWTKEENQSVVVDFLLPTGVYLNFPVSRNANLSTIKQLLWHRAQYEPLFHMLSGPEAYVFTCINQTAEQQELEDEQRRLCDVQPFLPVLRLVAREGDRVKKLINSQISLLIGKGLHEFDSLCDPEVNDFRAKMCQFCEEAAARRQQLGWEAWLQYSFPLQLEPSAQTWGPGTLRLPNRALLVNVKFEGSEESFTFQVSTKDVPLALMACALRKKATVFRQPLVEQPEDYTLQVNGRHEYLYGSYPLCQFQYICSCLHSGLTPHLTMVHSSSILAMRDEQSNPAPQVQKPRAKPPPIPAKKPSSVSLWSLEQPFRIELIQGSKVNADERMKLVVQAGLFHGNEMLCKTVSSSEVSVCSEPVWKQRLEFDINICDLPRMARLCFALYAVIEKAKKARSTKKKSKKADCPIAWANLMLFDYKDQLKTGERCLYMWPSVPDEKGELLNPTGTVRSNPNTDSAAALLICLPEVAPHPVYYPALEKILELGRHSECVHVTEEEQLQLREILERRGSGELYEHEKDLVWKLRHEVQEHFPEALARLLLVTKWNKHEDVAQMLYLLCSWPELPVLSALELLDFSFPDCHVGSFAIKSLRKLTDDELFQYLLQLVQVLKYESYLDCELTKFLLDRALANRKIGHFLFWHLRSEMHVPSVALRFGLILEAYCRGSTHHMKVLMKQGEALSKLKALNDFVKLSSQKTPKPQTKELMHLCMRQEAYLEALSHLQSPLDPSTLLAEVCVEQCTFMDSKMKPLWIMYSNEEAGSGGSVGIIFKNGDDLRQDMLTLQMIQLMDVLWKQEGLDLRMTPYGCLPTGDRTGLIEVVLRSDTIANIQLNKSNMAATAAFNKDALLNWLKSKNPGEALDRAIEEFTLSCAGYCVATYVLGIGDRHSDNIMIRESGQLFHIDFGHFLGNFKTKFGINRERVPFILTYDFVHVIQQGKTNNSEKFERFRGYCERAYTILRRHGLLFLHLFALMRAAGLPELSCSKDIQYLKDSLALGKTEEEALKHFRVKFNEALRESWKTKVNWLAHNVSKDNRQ
Sequence of PI3K (p110δ/p85α) (P27986 whole entry partner): as the sequence (P27986 whole entry partner) above

SMILES	IC50 [1] [nM]	IC50 [2] [nM]	IC50 [3] [µM]	IC50 [4] [nM]
Cc1nc(C(C)c2cc(Cl)c(F)c(C(=O)NCC3(O)CC3)c2OC(C)C)n2ccnc(N)c12 (stereo not drawn) [Compound 10, 3-(1-(8-amino-1-methylimidazo[1,5-a]pyrazin-3-yl)ethyl)-5-chloro-6-fluoro-N-((1-hydroxycyclopropyl)methyl)-2-isopropoxybenzamide]	3	34000	22	9000
Cc1nc(C(C)c2cc(Cl)c(F)c(C(=O)NC3CC3)c2OC(C)C)n2ccnc(N)c12 (stereo not drawn) [Compound 11, 3-(1-(8-amino-1-methylimidazo[1,5-a]pyrazin-3-yl)ethyl)-5-chloro-N-cyclopropyl-6-fluoro-2-isopropoxybenzamide]	2	31000	6.2	7300
Cc1nc(C(C)c2cc(Cl)c(F)c(C(=O)Nc3ccccc3)c2OC(C)C)n2ccnc(N)c12 (stereo not drawn) [Compound 12, 3-(1-(8-amino-1-methylimidazo[1,5-a]pyrazin-3-yl)ethyl)-5-chloro-6-fluoro-2-isopropoxy-N-phenylbenzamide]	3.7	> 50000	> 50	14000
CCOCC1(NC(=O)c2c(F)c(Cl)cc([C@H](C)c3nc(C)c4c(N)nccn34)c2OC(C)C)CC1 [Compound 15, (S)-3-(1-(8-amino-1-methylimidazo[1,5-a]pyrazin-3-yl)ethyl)-5-chloro-N-(1-(ethoxymethyl)cyclopropyl)-6-fluoro-2-isopropoxybenzamide]	1.8	36000	> 50	6700
Cc1nc([C@@H](C)c2cc(Cl)c(F)c(C(=O)NCCN(C)C)c2OC(C)C)n2ccnc(N)c12 [Compound 16, (S)-3-(1-(8-amino-1-methylimidazol[1,5-a]pyrazin-3-yl)ethyl)-5-chloro-N-(2-(dimethylamino)ethyl)-6-fluoro-2-isopropoxybenzamide]	4	20000	17	11000
COC[C@@H]1CCCN1C(=O)c1c(F)c(Cl)cc([C@H](C)c2nc(C)c3c(N)nccn23)c1OC(C)C [Compound 17, (3-((S)-1-(8-amino-1-methylimidazo[1,5-a]pyrazin-3-yl)ethyl)-5-chloro-6-fluoro-2-isopropoxyphenyl)((S)-2-(methoxymethyl)pyrrolidin-1-yl)methanone]	3.8	77000	72	14000
Cc1nc([C@@H](C)c2cc(Cl)c(F)c(C(=O)Nc3ccc(F)cc3)c2OC(C)C)n2ccnc(N)c12 [Compound 18, (S)-3-(1-(8-amino-1-methylimidazo[1,5-a]pyrazin-3-yl)ethyl)-5-chloro-6-fluoro-N-(4-fluorophenyl)-2-isopropoxybenzamide]	2.4	19000	12	6500
COC1CCN(C(=O)c2c(F)c(Cl)cc([C@H](C)c3nc(C)c4c(N)nccn34)c2OC(C)C)CC1 [Compound 19, (S)-(3-(1-(8-amino-1-methylimidazo[1,5-a]pyrazin-3-yl)ethyl)-5-chloro-6-fluoro-2-isopropoxyphenyl)(4-methoxypiperidin-1-yl)methanone]	2	33000	60	10000
Cc1nc([C@@H](C)c2cc(Cl)c(F)c(C(=O)N[C@@H](C)c3ccccc3)c2OC(C)C)n2ccnc(N)c12 [Compound 21, 3-((S)-1-(8-amino-1-methylimidazo[1,5-a]pyrazin-3-yl)ethyl)-5-chloro-6-fluoro-2-isopropoxy-N-((S)-1-phenylethyl)benzamide]	1.4	33000	28	3900
Cc1nc([C@@H](C)c2cc(Cl)c(F)c(C(=O)NC[C@@H]3CCCO3)c2OC(C)C)n2ccnc(N)c12 [Compound 24, 3-((S)-1-(8-amino-1-methylimidazo[1,5-a]pyrazin-3-yl)ethyl)-5-chloro-6-fluoro-2-isopropoxy-N-(((S)-tetrahydrofuran-2-yl)methyl)benzamide]	1.6	36000	16	5800
Cc1nc([C@@H](C)c2cc(Cl)c(F)c(C(=O)N[C@H]3CCC[C@H]3O)c2OC(C)C)n2ccnc(N)c12 [Compound 25, 3-((S)-1-(8-amino-1-methylimidazo[1,5-a]pyrazin-3-yl)ethyl)-5-chloro-6-fluoro-N-((1S,2R)-2-hydroxycyclopentyl)-2-isopropoxybenzamide]	1.9	24000	8.7	6000
Cc1nc([C@@H](C)c2cc(Cl)c(F)c(C(=O)NCCC3CCOCC3)c2OC(C)C)n2ccnc(N)c12 [Compound 26, (S)-3-(1-(8-amino-1-methylimidazol[1,5-a]pyrazin-3-yl)ethyl)-5-chloro-6-fluoro-2-isopropoxy-N-(2-(tetrahydro-2H-pyran-4-yl)ethyl)benzamide]	0.86	24000	17	6500
CNC(=O)c1c(F)c(Cl)cc([C@H](C)c2nc(C)c3c(N)nccn23)c1OC(C)C [Compound 27, (S)-3-(1-(8-amino-1-methylimidazo[1,5-a]pyrazin-3-yl)ethyl)-5-chloro-6-fluoro-2-isopropoxy-N-methylbenzamide]	0.93	32000	3	3900
CCNC(=O)c1c(F)c(Cl)cc([C@H](C)c2nc(C)c3c(N)nccn23)c1OC(C)C [Compound 28, (S)-3-(1-(8-amino-1-methylimidazo[1,5-a]pyrazin-3-yl)ethyl)-5-chloro-6-fluoro-2-isopropoxy-N-ethyl-benzamide]	1.2	24000	6.8	4800
Cc1nc([C@@H](C)c2cc(Cl)c(F)c(C(=O)NCC3CCN(C)CC3)c2OC(C)C)n2ccnc(N)c12 [Compound 30, (S)-3-(1-(8-amino-1-methylimidazo[1,5-a]pyrazin-3-yl)ethyl)-5-chloro-6-fluoro-2-isopropoxy-N-((1-methylpiperidin-4-yl)methyl)benzamide]	0.97	17000	14	7700
Cc1nc([C@@H](C)c2cc(Cl)c(F)c(C(=O)NC[C@H]3CCCO3)c2OC(C)C)n2ccnc(N)c12 [Compound 31, 3-((S)-1-(8-amino-1-methylimidazo[1,5-a]pyrazin-3-yl)ethyl)-5-chloro-6-fluoro-2-isopropoxy-N-(((R)-tetrahydrofuran-2-yl)methyl)benzamide]	3.1	25000	16	6200
Cc1nc([C@@H](C)c2cc(Cl)c(F)c(C(=O)NCc3ccccn3)c2OC(C)C)n2ccnc(N)c12 [Compound 33, (S)-3-(1-(8-amino-1-methylimidazo[1,5-a]pyrazin-3-yl)ethyl)-5-chloro-6-fluoro-2-isopropoxy-N-(pyridin-2-ylmethyl)benzamide]	1.3	9300	13	2200
Cc1nc([C@@H](C)c2cc(Cl)c(F)c(C(=O)NC[C@H]3CCOC3)c2OC(C)C)n2ccnc(N)c12 [Compound 34, 3-((S)-1-(8-amino-1-methylimidazo[1,5-a]pyrazin-3-yl)ethyl)-5-chloro-6-fluoro-2-isopropoxy-N-(((R)-tetrahydrofuran-3-yl)methyl)benzamide]	1.4	36000	11	3200

From patent US11905294B2, “Imidazo[1,5-a]pyrazine derivatives as PI3Kδ inhibitors” (BEIGENE, LTD., priority 2017, dated 2024)
